# Patent US20120107331A1, “GEMM RIBOSWITCHES, STRUCTURE-BASED COMPOUND DESIGN WITH GEMM RIBOSWITCHES, AND METHODS AND COMPOSITIONS FOR USE OF AND WITH GEMM RIBOSWITCHES” (YALE UNIVERSITY, priority 2009, published 2012)
# Experiments:
# [1] = tested on: GEMM riboswitch C92U mutant (WT-110 background); assay: Gel-shift Kd measurement, C92U mutant RNA; format: binding, Vibrio cholerae; conditions: for binding (in words): C92U RNA; for binding (in words) / Kd: gel-shift; for Kd: RNA C92U, dash = no binding
# Text: (§1) Point mutants were cloned using the Quik Change protocol. Radiolabeled c-di-GMP was obtained enzymatically according to published procedures and purified by polyacrylamide gel electrophoresis (PAGE) (Paul, R. et al. Cell cycle-dependent dynamic localization of a bacterial response regulator with a novel di-guanylate cyclase output domain. Genes & Development 18, 715-27 (2004); Christen, M., Christen, B., Folcher, M., Schauerte, A. & Jenal, U. Identification and characterization of a cyclic di-GMP-specific phosphodiesterase and its allosteric control by GTP. J Biol Chem 280, 30829-37 (2005)). A constitutively active DGC, PleD* was expressed and purified as described and the reaction was initiated using [α-^32P]GTP as the substrate (Paul, R. et al. Cell cycle-dependent dynamic localization of a bacterial response regulator with a novel di-guanylate cyclase output domain. Genes & Development 18, 715-27 (2004)). A single band appeared as the reaction proceeded that ran slower than the starting material when purified by PAGE. Radiolabeled c-diAMP was obtained similarly, using the protein DisA and [α-^32P]ATP as the substrate. Riboswitch RNAs were folded in the presence of radiolabeled c-di-GMP or c-diAMP and folding buffer. The complex was allowed to equilibrate for 1 hour and bound and free c-di-GMP were separated by native (100 mM Tris/HEPES pH 7.5, 10 mM MgCl2, 0.1 mM EDTA) PAGE at 4° C. A STORM phosphorimager was used to scan gels and the bands were quantitated using ImageQuant. Fraction bound was graphed versus RNA concentration and fit using KaleidaGraph to obtain Kds according to the equation:
# (§2) F=fraction bound; F∞=fraction bound at saturation; C=riboswitch concentration
# (§3) A gel-shift assay, which directly measures c-di-GMP binding to the GEMM RNA (FIG. 3A, B), was developed in order to test biochemical predictions resulting from the GEMM riboswitch structure. Specifically, radiolabeled c-di-GMP was incubated with the riboswitch and the RNA bound ligand was separated from the free on a native polyacrylamide gel.
# (§4) The three nucleotides directly involved in ligand recognition (G20, A47 and C92) were mutated and affinity for c-di-GMP was measured by gel shift analysis in the context of the WT-110 nucleotide background (Table 1) (Sudarsan, N. et al. Riboswitches in eubacteria sense the second messenger cyclic di-GMP. Science 321, 411-3). Mutational analysis supports the crystallographically observed base pair between a conserved cytidine, C92, and c-di-GMP. […] By mutating it to an A or G, this ability to base pair with the ligand is lost. The large effect that these mutations have on ligand binding confirms that C92 is making an important contact with Gβ. The minor affect seen upon mutation to a U is in a reasonable range given the potential to form a wobble pair with Gβ. A natural GEMM sequence has been identified that lacks a C at position 92, but instead has a C at position 93. This RNA can bind c-di-GMP with an affinity of approximately 1 uM.
# [2] = tested on: GEMM riboswitch Vc2 110 (WT-110); assay: Gel-shift Kd measurement, WT-110 RNA; format: binding, Vibrio cholerae; conditions: for binding (in words) / Kd: gel-shift; for Kd: radiolabeled ligand, RNA WT-110, dash = no binding
# Text: as §1, §2, §3
# This assay was used to measure a binding constant for the crystallized RNA and also to verify that this method gave the Kd measurements similar to what had been fond using in-line probing. To validate the method, Vc2 110 was used and found to have a Kd of ˜7 nM. This value agrees well with affinities obtained previously by in-line probing for this same sequence (Sudarsan, N. et al. Riboswitches in eubacteria sense the second messenger cyclic di-GMP. Science 321, 411-3). A RNA corresponding to the crystallization construct with no U1A binding loop (Vc2 91) was then tested. […] The RNA used in the crystallographic studies (Vc2 91 with a U1A binding loop) bound with a Kd slightly weaker than wild-type, but is within 9-fold of the original value.
# [3] = tested on: GEMM riboswitch G20A mutant (WT-110 background); assay: Gel-shift Kd measurement, G20A mutant RNA; format: binding, Vibrio cholerae
# Text: (§5) Point mutants were cloned using the Quik Change protocol. Radiolabeled c-di-GMP was obtained enzymatically according to published procedures and purified by polyacrylamide gel electrophoresis (PAGE) (Paul, R. et al. Cell cycle-dependent dynamic localization of a bacterial response regulator with a novel di-guanylate cyclase output domain. Genes & Development 18, 715-27 (2004); Christen, M., Christen, B., Folcher, M., Schauerte, A. & Jenal, U. Identification and characterization of a cyclic di-GMP-specific phosphodiesterase and its allosteric control by GTP. J Biol Chem 280, 30829-37 (2005)). A constitutively active DGC, PleD* was expressed and purified as described and the reaction was initiated using [α-^32P]GTP as the substrate (Paul, R. et al. Cell cycle-dependent dynamic localization of a bacterial response regulator with a novel di-guanylate cyclase output domain. Genes & Development 18, 715-27 (2004)). […] A STORM phosphorimager was used to scan gels and the bands were quantitated using ImageQuant. […]
# (§6) The three nucleotides directly involved in ligand recognition (G20, A47 and C92) were mutated and affinity for c-di-GMP was measured by gel shift analysis in the context of the WT-110 nucleotide background (Table 1) (Sudarsan, N. et al. Riboswitches in eubacteria sense the second messenger cyclic di-GMP. Science 321, 411-3). […]
# [4] = tested on: GEMM riboswitch C92 to A mutant (WT-110 background); assay: Gel-shift affinity measurement, C92A mutant RNA; format: binding, Vibrio cholerae
# Text: as §5, §6
# [5] = molecular target: GEMM riboswitch; conditions: Sudarsan et al. 2008; read-out: affinity; cited from earlier work
# [6] = molecular target: GEMM riboswitch Vc2 91 with a U1A binding loop (WT-U1A); assay: Gel-shift Kd measurement, WT-U1A RNA (Vc2 91 with a U1A binding loop); set-up: species or system Vibrio cholerae
# Text: as §5, with “(2004)). A single band appeared as the reaction proceeded that ran slower than the starting material when purified by PAGE. Radiolabeled c-diAMP was obtained similarly, using the protein DisA and [α-^32P]ATP as the substrate. Riboswitch RNAs were folded in the presence of radiolabeled c-di-GMP or c-diAMP and folding buffer.” for “(2004)).”
# [7] = tested on: GEMM riboswitch G20U mutant (WT-110 background); assay: Gel-shift Kd measurement, G20U mutant RNA; format: binding, Vibrio cholerae
# Text: as §5, §6
# [8] = tested on: GEMM riboswitch A47C mutant (WT-110 background); assay: Gel-shift Kd measurement, A47C mutant RNA; format: binding, Vibrio cholerae
# Text: as §5, §6
# [9] = tested on: GEMM riboswitch A47G mutant (WT-110 background); assay: Gel-shift Kd measurement, A47G mutant RNA; format: binding, Vibrio cholerae; conditions: for Kd: gel-shift, RNA A47G, dash = no binding
# Text: as §1, §2, §3
# as §4, with “A natural GEMM sequence has been identified that lacks a C at position 92, but instead has a C at position 93. This RNA can bind c-di-GMP with an affinity of approximately 1 uM.” left out
# [10] = molecular target: known c-di-GMP binding proteins; conditions: range from 50 nM to several micromolar; Hengge 2009; read-out: binding affinity; cited from earlier work
# [11] = tested on: natural GEMM sequence lacking C at position 92, C at position 93 mutated to an A; assay: Binding of c-di-GMP to natural GEMM sequence with C93 mutated to A
# Description: as §4
# [12] = molecular target: GEMM riboswitch C92U, G20A mutant; assay: Gel-shift Kd measurement, C92U, G20A double mutant RNA; format: binding, Vibrio cholerae; conditions: for Kd: gel-shift, RNA C92U, G20A, dash = no binding
# Text: as §1, §2
# as §3, with “gel. […]” for “gel.”
# [13] = tested on: GEMM riboswitch A47U mutant (WT-110 background); assay: Gel-shift Kd measurement, A47U mutant RNA; format: binding, Vibrio cholerae
# Text: as §5, §6
# [14] = tested on: GEMM riboswitch G20C mutant (WT-110 background); assay: Gel-shift Kd measurement, G20C mutant RNA; format: binding, Vibrio cholerae
# Text: as §1
# F=fraction bound; F∞=fraction bound at saturation; C=riboswitch concentration […]
# as §6
# [15] = molecular target: natural GEMM sequence that lacks a C at position 92 but has a C at position 93; assay: Binding of c-di-GMP to natural GEMM sequence with C at position 93; conditions: read-out: affinity
# Description: as §4
# [16] = molecular target: GEMM riboswitch Vc2 91 (WT-91); assay: Gel-shift Kd measurement, WT-91 RNA (crystallization construct with no U1A binding loop); set-up: species or system Vibrio cholerae; conditions: radiolabeled ligand, RNA WT-91, dash = no binding seen
# Text: as §5, with “(2004)). A single band appeared as the reaction proceeded that ran slower than the starting material when purified by PAGE. Radiolabeled c-diAMP was obtained similarly, using the protein DisA and [α-^32P]ATP as the substrate. Riboswitch RNAs were folded in the presence of radiolabeled c-di-GMP or c-diAMP and folding buffer.” for “(2004)).”
# [17] = tested on: GEMM riboswitch C92 to G mutant (WT-110 background); assay: Gel-shift affinity measurement, C92G mutant RNA; format: binding, Vibrio cholerae
# Text: as §5, §6
compound,measurement,setting,value
Nc1nc2c(ncn2[C@@H]2O[C@H](COP(=O)(O)O[C@H]3[C@@H](O)[C@H](n4cnc5c(N)ncnc54)O[C@@H]3COP(=O)(O)O)[C@@H](O)[C@H]2O)c(=O)[nH]1 [pApG],binding (in words),[1],does not bind
Nc1nc2c(ncn2[C@@H]2O[C@H](COP(=O)(O)O)[C@@H](OP(=O)(O)OC[C@H]3O[C@@H](n4cnc5c(N)ncnc54)[C@H](O)[C@@H]3O)[C@H]2O)c(=O)[nH]1 [pGpA],binding (in words),[2]; wild-type sequence,not
same,affinity lower than that of the wild-type RNA for pGpG,[1]; C92U RNA with pGpA vs wild-type RNA with pGpG,approximately 27 fold
same,binding (in words),[1],binding was observed
same,Kd,[1],16000 ± 5200 nM
"Nc1nc2c(ncn2[C@@H]2O[C@@H]3COP(=O)(O)O[C@H]4[C@@H](O)[C@H](n5cnc6c(=O)[nH]c(N)nc65)O[C@@H]4COP(=O)(O)O[C@H]3[C@H]2O)c(=O)[nH]1 [c-di-GMP, cyclic diguanosine monophosphate]",effect of mutation on affinity (in words),[3]; G20 to A,maintains approximately wild-type affinity
same,Kd,"[3]; gel-shift, RNA G20A, dash = no binding",4.7 ± 1.3 nM
same,Kd,[2],7.4 ± 2.4 nM
same,effect of mutation on affinity (in words),[4],reduces affinity for c-di-GMP substantially
same,loss in affinity,"[1]; C92U vs wild-type, c-di-GMP",6 fold
same,Kd,[1],43 ± 19 nM
same,Kd,[5],~1 nM
same,Kd weaker than wild-type,[6]; Vc2 91 with U1A binding loop vs original value,≤ 9 fold
same,Kd,"[6]; gel-shift, radiolabeled ligand, RNA WT-U1A, dash = no binding seen",55 ± 14 nM
same,loss in affinity,[7]; G20U vs wild-type,approximately 45 fold
same,Kd,"[7]; gel-shift, RNA G20U, dash = no binding",330 ± 150 nM
same,decrease in binding affinity,[8]; A47 mutated to C vs wild-type,approximately 1000 fold
same,Kd,"[8]; gel-shift, RNA A47C, dash = no binding",8500 ± 3000 nM
same,decrease in binding affinity,[9]; A47 mutated to G vs wild-type,approximately 1000 fold
same,Kd,[9],4200 ± 1700 nM
same,Kd,[10],≥ 50 nM
same,affinity (in words),[11],all affinity for c-di-GMP is lost
same,Kd,[12],3200 ± 600 nM
same,decrease in binding affinity,[13]; A47 mutated to U vs wild-type,approximately 1000 fold
same,Kd,"[13]; gel-shift, RNA A47U, dash = no binding",3500 ± 520 nM
same,reduction in affinity,[14]; G20C vs wild-type,2 fold
same,effect of mutation on affinity (in words),[14]; G20 to C,maintains approximately wild-type affinity
same,Kd,"[14]; gel-shift, RNA G20C, dash = no binding",13 ± 1.2 nM
same,Kd,[15],~1000 nM
same,Kd,[16],6.4 ± 2.8 nM
same,effect of mutation on affinity (in words),[17],reduces affinity for c-di-GMP substantially
Nc1nc2c(ncn2[C@@H]2O[C@H](COP(=O)(O)O[C@H]3[C@@H](O)[C@H](n4cnc5c(=O)[nH]c(N)nc54)O[C@@H]3COP(=O)(O)O)[C@@H](O)[C@H]2O)c(=O)[nH]1 [pGpG],Kd,[2],490 ± 150 nM
same,binding (in words),[2]; wild-type sequence,binds
same,affinity lower than that of the cyclic ligand,"[2]; wild-type sequence, pGpG vs c-di-GMP",approximately 66 fold
same,binding (in words),[1],does not bind
same,binds the linear form better than c-di-GMP,"[9]; A47G, pGpG vs c-di-GMP",3 fold
same,Kd,[9],1400 ± 120 nM
"Nc1ncnc2c1ncn2[C@@H]1O[C@@H]2COP(=O)(O)O[C@H]3[C@@H](O)[C@H](n4cnc5c(N)ncnc54)O[C@@H]3COP(=O)(O)O[C@H]2[C@H]1O [c-di-AMP, cyclic diadenosine monophosphate]",bound c-di-AMP better than c-di-GMP,[12]; C92U/G20A double mutant,approximately 6 fold
same,Kd,[12],540 ± 29 nM
